Here are results for 16 compounds from patent US20200172483A1, “HETEROCYCLIC SMALL MOLECULE MODULATORS OF HUMAN STING” (Curadev Pharma Limited, priority 2017, published 2020).

pEC50: −log10 of the molar value. Read-outs that look alike come from different tables or passages of the source.

One experiment relates to IRF pathway. The experiment in a line: Reporter gene expression assay for IRF axis in THP1-Dual cells (secreted Lucia luciferase). Format: cell-based, human. As to conditions: 20 hr stimulation, QUANTI-Luc, EC50 range, read-out: THP-IRF activity. The procedure, abridged: (§1)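 THP1-Dual cells (THP-1 monocytes with inducible NF-κB-SEAP and IRF-Lucia reporters; 5×10^5 cells) were stimulated with compounds for 20 hr. Secreted SEAP (QUANTI-Blue) and Lucia luciferase (QUANTI-Luc) were then measured in the supernatant. EC50 values are reported as ranges.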

A further experiment has as its target T1, hSTING (HAQ) (Homo sapiens, UniProt Q86WV6, G230A/H232R/R293Q/R71H).
T1 construct: host or cells: HEK293T
The experiment in a line: Luciferase reporter assay in HEK293T-hSTING-Luciferase cells (HAQ polymorph). It is filed as cell-based. As to conditions: EC50 range. The procedure, abridged:
(§2)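 Clonal HEK293T lines stably expressing the hSTING variant (H232 or HAQ) plus an ISRE/ISG54-driven secreted luciferase reporter were stimulated with compounds for 20 hr. Supernatant luciferase measured by luminescence (Quanti-Luc).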
Background: Reporter assays use an easily measured gene product as a stand-in for the process of interest.

Another experiment addresses T2, hSTING (H232) (Homo sapiens, UniProt Q86WV6).
T2 construct: host or cells: HEK293T
The experiment in a line: Luciferase reporter assay in HEK293T-hSTING-Luciferase cells (H232/REF polymorph). It is filed as cell-based. As to conditions: EC50 range. The procedure, abridged: as §2

For the next experiment, the system named is NF-κB pathway. The experiment in a line: Reporter gene expression assay for NFκB axis in THP1-Dual cells (secreted SEAP). It is filed as cell-based, human. As to conditions: 20 hr stimulation, QUANTI-Blue SEAP, EC50 range, read-out: THP-NFKB activity. An outline of the steps:
as §1

A further experiment deals with T3, WT/R232 STING protein (Homo sapiens, UniProt Q86WV6, H232R).
T3 construct: host or cells: HEK293T
The experiment in a line: Luciferase reporter assay in HEK293T-hSTING-Luciferase cells (R232). It is filed as cell-based. The settings on record: 20 hr stimulation, EC50 range. An outline of the steps: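 Readout is fold-induction over baseline of secreted luciferase, measured by luminescence after 20 hr compound stimulation. Cells: clonally selected HEK293T stably carrying hSTING (R232) and a luciferase reporter under five tandem ISREs fused to an ISG54 minimal promoter.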

T1 sequence (Q86WV6 whole entry R71H/G230A/H232R/R293Q): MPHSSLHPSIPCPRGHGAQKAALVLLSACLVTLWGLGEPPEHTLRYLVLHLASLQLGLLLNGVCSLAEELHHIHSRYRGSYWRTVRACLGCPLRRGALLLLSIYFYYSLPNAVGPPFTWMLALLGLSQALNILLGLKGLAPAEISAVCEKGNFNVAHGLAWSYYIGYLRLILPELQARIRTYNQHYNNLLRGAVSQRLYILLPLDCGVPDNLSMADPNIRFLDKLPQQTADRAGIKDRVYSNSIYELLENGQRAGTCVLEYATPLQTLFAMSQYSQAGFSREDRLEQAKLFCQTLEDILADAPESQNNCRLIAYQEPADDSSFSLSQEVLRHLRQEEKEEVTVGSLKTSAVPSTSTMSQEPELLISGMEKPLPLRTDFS
T2 sequence (Q86WV6 whole entry): as the sequence (Q86WV6 whole entry R71H/G230A/H232R/R293Q) above, with H71R, A230G, R232H, Q293R counted along it
T3 sequence (Q86WV6 whole entry H232R): as the sequence (Q86WV6 whole entry R71H/G230A/H232R/R293Q) above, with H71R, A230G, Q293R counted along it

Take `CCn1nc(C)cc1CN1C(=O)C(C)(C)c2ccc(C(=O)NCc3cc4cc(F)ccc4o3)cc21` [Example 116, 1-((1-ethyl-3-methyl-1H-pyrazol-5-yl)methyl)-N-((5-fluorobenzofuran-2-yl)methyl)-3,3-dimethyl-2-oxoindoline-6-carboxamide]: the pEC50 in the experiment with IRF pathway (Homo sapiens, THP1-Dual, 20 h) is 5.00 to 6.00; at hSTING (HAQ), not below 6.00; on hSTING (H232), not below 6.00; in the experiment on NF-κB pathway (Homo sapiens, THP1-Dual, 20 h), 5.00 to 6.00; at WT/R232 STING protein, not below 6.00.

Take `CCn1nc(C)cc1CN1C(=O)C(C)(C)c2ccc(C(=O)NCc3c(F)cc(F)cc3F)cc21` [Example 117, 1-((1-ethyl-3-methyl-1H-pyrazol-5-yl)methyl)-3,3-dimethyl-2-oxo-N-(2,4,6-trifluorobenzyl)indoline-6-carboxamide]: the pEC50 is 5.00 to 6.00 in the experiment with IRF pathway (Homo sapiens, THP1-Dual, 20 h); 5.00 to 6.00 at hSTING (HAQ); 5.00 to 6.00 at hSTING (H232); 5.00 to 6.00 with NF-κB pathway (Homo sapiens, THP1-Dual, 20 h); not below 6.00 at WT/R232 STING protein.

With `COCCn1nc(C)c(F)c1CN1C(=O)C(C)(C)c2ccc(C(=O)NCc3cc4cc(F)ccc4o3)cc21` [Example 118, 1-((4-fluoro-1-(2-methoxyethyl)-3-methyl-1H-pyrazol-5-yl)methyl)-N-((5-fluorobenzofuran-2-yl)methyl)-3,3-dimethyl-2-oxoindoline-6-carboxamide], the pEC50 in the experiment with IRF pathway (Homo sapiens, THP1-Dual, 20 h) was less than 5.00; on hSTING (HAQ), 5.00 to 6.00; at hSTING (H232), 5.00 to 6.00; in the experiment with NF-κB pathway (Homo sapiens, THP1-Dual, 20 h), less than 5.00; on WT/R232 STING protein, not below 6.00.

Regarding `Cc1nn(CCO)c(CN2C(=O)C(C)(C)c3ccc(C(=O)NCc4cc5cc(F)ccc5o4)cc32)c1F` [Example 119, 1-((4-fluoro-1-(2-hydroxyethyl)-3-methyl-1H-pyrazol-5-yl)methyl)-N-((5-fluorobenzofuran-2-yl)methyl)-3,3-dimethyl-2-oxoindoline-6-carboxamide], the pEC50 with IRF pathway (Homo sapiens, THP1-Dual, 20 h) is 5.00 to 6.00; at hSTING (HAQ) it was 5.00 to 6.00; at hSTING (H232), 5.00 to 6.00; with NF-κB pathway (Homo sapiens, THP1-Dual, 20 h), 5.00 to 6.00; on WT/R232 STING protein, not below 6.00.

As for `CC1(C)C(=O)N(Cc2ccccc2C#N)c2cc(C(=O)NCc3c(F)cc(F)cc3F)ccc21` [Example 124, 1-(2-cyanobenzyl)-3,3-dimethyl-2-oxo-N-(2,4,6-trifluorobenzyl)indoline-6-carboxamide], the pEC50 in the experiment on IRF pathway (Homo sapiens, THP1-Dual, 20 h) is less than 5.00; at hSTING (HAQ), 5.00 to 6.00; at hSTING (H232), 5.00 to 6.00; in the experiment with NF-κB pathway (Homo sapiens, THP1-Dual, 20 h), less than 5.00; at WT/R232 STING protein, not below 6.00.

For `CC1(C)CN(C(=O)Cc2ccccc2)c2cc(C(=O)NCc3c(F)cc(F)cc3F)ccc21` [Example 136, 3,3-dimethyl-1-(2-phenylacetyl)-N-(2,4,6-trifluorobenzyl)indoline-6-carboxamide], the pEC50 in the experiment with IRF pathway (Homo sapiens, THP1-Dual, 20 h) is less than 5.00; on hSTING (HAQ) it was 5.00 to 6.00; at hSTING (H232), less than 5.00; with NF-κB pathway (Homo sapiens, THP1-Dual, 20 h), less than 5.00; at WT/R232 STING protein, 5.00 to 6.00.

For the compound `O=C(NCc1c(F)cc(F)cc1F)c1ccc2c(c1)N(Cc1cc(F)cc(F)c1)C(=O)C21CCCC1` [Example 137, 1′(3,5-difluorobenzyl)-2′-oxo-N-(2,4,6-trifluorobenzyl)spiro[cyclopentane-1,3′-indoline]-6′-carboxamide], the pEC50 was less than 5.00 with IRF pathway (Homo sapiens, THP1-Dual, 20 h); 5.00 to 6.00 at hSTING (HAQ); 5.00 to 6.00 at hSTING (H232); less than 5.00 in the experiment on NF-κB pathway (Homo sapiens, THP1-Dual, 20 h); 5.00 to 6.00 at WT/R232 STING protein.

In the case of `CC1(Cl)C(=O)N(Cc2cc(F)cc(F)c2)c2cc(C(=O)NCc3c(F)cc(F)cc3F)ccc21` (centres unmarked) [Example 144, 3-Chloro-1-(3,5-difluorobenzyl)-3-methyl-2-oxo-N-(2,4,6 trifluorobenzyl) indoline-6-carboxamide], the pEC50 in the experiment with IRF pathway (Homo sapiens, THP1-Dual, 20 h) is less than 5.00; on hSTING (HAQ), 5.00 to 6.00; on hSTING (H232) it was 5.00 to 6.00; in the experiment on NF-κB pathway it was 5.00 to 6.00; on WT/R232 STING protein it was not below 6.00.

For the compound `CC1(Cl)C(=O)N(Cc2c(F)cccc2Cl)c2cc(C(=O)NCc3c(F)cc(F)cc3F)ccc21` (centres unmarked) [Example 146, 3-chloro-1(2-chloro-6-fluorobenzyl)-3-methyl-2-oxo-N-(2,4,6-trifluorobenzyl)indoline-6-carboxamide], the pEC50 was less than 5.00 in the experiment with IRF pathway (Homo sapiens, THP1-Dual, 20 h); 5.00 to 6.00 at hSTING (HAQ); 5.00 to 6.00 on hSTING (H232); 5.00 to 6.00 in the experiment with NF-κB pathway (Homo sapiens, THP1-Dual, 20 h); not below 6.00 at WT/R232 STING protein.

On to `CC1(Cl)C(=O)N(Cc2cc(F)cc(F)c2)c2cc(C(=O)NCc3c(F)cc(F)cc3F)ccc21` (centres unmarked) [Example 147, 3-chloro-1-(3,5-difluorobenzyl)-3-methyl-2-oxo-N-(2,4,6-trifluorobenzyl)indoline-6-carboxamide], for which the pEC50 in the experiment on IRF pathway was less than 5.00; on hSTING (HAQ), less than 5.00; on hSTING (H232), less than 5.00; in the experiment on NF-κB pathway it was less than 5.00; on WT/R232 STING protein, not below 6.00.

Regarding `CC1(Cl)C(=O)N(Cc2cc(F)cc(F)c2)c2cc(C(=O)NCc3c(F)cc(F)cc3F)ccc21` (centres unmarked) [Example 148], the pEC50 is less than 5.00 in the experiment on IRF pathway; 5.00 to 6.00 on hSTING (HAQ); 5.00 to 6.00 at hSTING (H232); less than 5.00 with NF-κB pathway; 5.00 to 6.00 at WT/R232 STING protein.

Take `CC1(N=[N+]=[N-])C(=O)N(Cc2c(F)cccc2Cl)c2cc(C(=O)NCc3c(F)cc(F)cc3F)ccc21` (centres unmarked) [Example 153, 3-azido-1(2-chloro-6-fluorobenzyl)-3-methyl-2-oxo-N-(2,4,6-trifluorobenzyl)indoline-6-carboxamide]: the pEC50 in the experiment with IRF pathway (Homo sapiens, THP1-Dual, 20 h) was less than 5.00; at hSTING (HAQ) it was 5.00 to 6.00; on hSTING (H232), 5.00 to 6.00; in the experiment on NF-κB pathway (Homo sapiens, THP1-Dual, 20 h) it was 5.00 to 6.00; at WT/R232 STING protein it was not below 6.00.

With `CCC1(Cl)C(=O)N(Cc2c(F)cccc2Cl)c2cc(C(=O)NCc3c(F)cc(F)cc3F)ccc21` (centres unmarked) [Example 155, 3-chloro-1-(2-chloro-6-fluorobenzyl)-3-ethyl-2-oxo-N-(2,4,6-trifluorobenzyl)indoline-6-carboxamide], the pEC50 in the experiment on IRF pathway (Homo sapiens, THP1-Dual, 20 h) was less than 5.00; on hSTING (HAQ), less than 5.00; on hSTING (H232), less than 5.00; in the experiment on NF-κB pathway (Homo sapiens, THP1-Dual, 20 h), less than 5.00; on WT/R232 STING protein, not below 6.00.

As to `CC(C)C1(Cl)C(=O)N(Cc2c(F)cccc2Cl)c2cc(C(=O)NCc3c(F)cc(F)cc3F)ccc21` (centres unmarked) [Example 157, 3-chloro-1-(2-chloro-6-fluorobenzyl)-3-isopropyl-2-oxo-N-(2,4,6-trifluorobenzyl)indoline-6-carboxamide], the pEC50 was less than 5.00 in the experiment with IRF pathway (Homo sapiens, THP1-Dual, 20 h); 5.00 to 6.00 at hSTING (HAQ); 5.00 to 6.00 at hSTING (H232); less than 5.00 with NF-κB pathway (Homo sapiens, THP1-Dual, 20 h); not below 6.00 on WT/R232 STING protein.

In the case of `CCC1(OC)C(=O)N(Cc2c(F)cccc2Cl)c2cc(C(=O)NCc3c(F)cc(F)cc3F)ccc21` (centres unmarked) [Example 161, 1-(2-chloro-6-fluorobenzyl)-3-ethyl-3-methoxy-2-oxo-N-(2,4,6-trifluorobenzyl)indoline-6-carboxamide], the pEC50 in the experiment with IRF pathway (Homo sapiens, THP1-Dual, 20 h) is less than 5.00; on hSTING (HAQ) it was 5.00 to 6.00; on hSTING (H232), 5.00 to 6.00; with NF-κB pathway (Homo sapiens, THP1-Dual, 20 h), less than 5.00; on WT/R232 STING protein, 5.00 to 6.00.

For `CC1(C#N)C(=O)N(Cc2c(F)cccc2Cl)c2cc(C(=O)NCc3c(F)cc(F)cc3F)ccc21` (centres unmarked) [Example 164, 1-(2-chloro-6-fluorobenzyl)-3-cyano-3-methyl-2-oxo-N-(2,4,6-trifluorobenzyl)indoline-6-carboxamide], the pEC50 in the experiment with IRF pathway (Homo sapiens, THP1-Dual, 20 h) is less than 5.00; on hSTING (HAQ), 5.00 to 6.00; on hSTING (H232), not below 6.00; with NF-κB pathway it was less than 5.00; on WT/R232 STING protein, not below 6.00.
